Our source for the pest or weed control values is patent US8835462B2, “Macrocyclic picolinamides as fungicides” (Dow AgroSciences LLC, priority 2012, dated 2014).

Holding throughout (type): in vivo
One experiment has as its system Uncinula necator. Put plainly: Grape powdery mildew (UNCINE) fungicidal activity. Particulars: Erysiphe necator, 24 h, 1 Day Protectant, read-out: Disease Control UNCINE 1DP. The method, then:
Technical grades of materials were dissolved in acetone, which were then mixed with nine volumes of water containing 110 ppm Triton X-100. The fungicide solutions were applied onto wheat seedlings using an automated booth sprayer to run-off. All sprayed plants were allowed to air dry prior to further handling. Wheat plants (variety Yuma) were grown from seed in a greenhouse in 50% mineral soil/50% soil-less Metro mix until the first leaf was fully emerged, with 7-10 seedlings per pot. These plants were inoculated with an aqueous spore suspension of Septoria tritici either prior to or after fungicide treatments. After inoculation the plants were kept in 100% relative humidity (one day in a dark dew chamber followed by two to three days in a lighted dew chamber at 20° C.) to permit spores to germinate and infect the leaf. The plants were then transferred to a greenhouse set at 20° C. for disease to develop. When disease symptoms were fully expressed on the 1st leaves of untreated plants, infection levels were assessed on a scale of 0 to 100 percent disease severity. Percent disease control was calculated using the ratio of disease severity on treated plants relative to untreated plants. Evaluation of Fungicidal Activity: Grape Powdery Mildew (Uncinula Necator; Bayer Code […]) Grape seedlings (variety Carignane) were grown in soil-less Metro mix, with one plant per pot, and used in the test when approximately one month old. Plants were inoculated 24 hr after fungicide treatment by shaking spores from infected leaves over test plants. Plants were maintained in a greenhouse set at 20° C. until disease was fully developed. Fungicide formulation, application and disease assessment on the sprayed leaves followed the procedures as described in the Example A.

Experiment [1] relates to Blumeria graminis f. sp. tritici. Put plainly: Wheat powdery mildew (ERYSGT) fungicidal activity. Particulars: 24 h, 1 Day Protectant, read-out: Disease Control ERYSGT 1DP. The method, then:
Technical grades of materials were dissolved in acetone, which were then mixed with nine volumes of water containing 110 ppm Triton X-100. The fungicide solutions were applied onto wheat seedlings using an automated booth sprayer to run-off. All sprayed plants were allowed to air dry prior to further handling. Wheat plants (variety Yuma) were grown from seed in a greenhouse in 50% mineral soil/50% soil-less Metro mix until the first leaf was fully emerged, with 7-10 seedlings per pot. These plants were inoculated with an aqueous spore suspension of Septoria tritici either prior to or after fungicide treatments. After inoculation the plants were kept in 100% relative humidity (one day in a dark dew chamber followed by two to three days in a lighted dew chamber at 20° C.) to permit spores to germinate and infect the leaf. The plants were then transferred to a greenhouse set at 20° C. for disease to develop. When disease symptoms were fully expressed on the 1st leaves of untreated plants, infection levels were assessed on a scale of 0 to 100 percent disease severity. Percent disease control was calculated using the ratio of disease severity on treated plants relative to untreated plants. Evaluation of Fungicidal Activity: Wheat Powdery Mildew (Blumeria Graminis f. sp. Tritici; Synonym: Erysiphe graminis f. sp. Tritici; Bayer Code […]) Wheat plants (variety Yuma) were grown from seed in a greenhouse in 50% mineral soil/50% soil-less Metro mix until the first leaf was fully emerged, with 7-10 seedlings per pot. These plants were inoculated by dusting with infected stock plants 24 hr after fungicide treatments. After inoculation the plants were kept in a greenhouse set at 20° C. for disease to develop. Fungicide formulation, application and disease assessment on the sprayed leaves followed the procedures as described in the Example A.

The test system of another experiment is Alternaria solani. In words: Tomato early blight (ALTESO) fungicidal activity. To be noted: 24 h, 1 Day Protectant, read-out: Disease Control ALTESO 1DP. The method, then: Technical grades of materials were dissolved in acetone, which were then mixed with nine volumes of water containing 110 ppm Triton X-100. The fungicide solutions were applied onto wheat seedlings using an automated booth sprayer to run-off. All sprayed plants were allowed to air dry prior to further handling. Wheat plants (variety Yuma) were grown from seed in a greenhouse in 50% mineral soil/50% soil-less Metro mix until the first leaf was fully emerged, with 7-10 seedlings per pot. These plants were inoculated with an aqueous spore suspension of Septoria tritici either prior to or after fungicide treatments. After inoculation the plants were kept in 100% relative humidity (one day in a dark dew chamber followed by two to three days in a lighted dew chamber at 20° C.) to permit spores to germinate and infect the leaf. The plants were then transferred to a greenhouse set at 20° C. for disease to develop. When disease symptoms were fully expressed on the 1st leaves of untreated plants, infection levels were assessed on a scale of 0 to 100 percent disease severity. Percent disease control was calculated using the ratio of disease severity on treated plants relative to untreated plants. Evaluation of Fungicidal Activity: Tomato Early Blight (Alternaria Solani; Bayer Code […]) Tomato plants (variety Outdoor girl) were propagated in soil-less Metro mix, with each pot having one plant, and used when 12 to 14 days old. Test plants were inoculated with an aqueous spore suspension of Alternaria solani 24 hr after fungicide treatments. After inoculation the plants were kept in 100% relative humidity (one day in a dark dew chamber followed by two to three days in a lighted dew chamber at 20° C.) to permit spores to germinate and infect the leaf. The plants were then transferred to a growth room at 22° C. for disease to develop. Fungicide formulation, application and disease assessment on the sprayed leaves followed the procedures as described in the Example A.

Experiment [2] deals with Glomerella lagenarium; Anamorph: Colletotricum lagenarium. Put plainly: Cucumber anthracnose (COLLLA) fungicidal activity. To be noted: Colletotrichum orbiculare, 24 h, 1 Day Protectant, read-out: Disease Control COLLLA 1DP. The method, then:
Technical grades of materials were dissolved in acetone, which were then mixed with nine volumes of water containing 110 ppm Triton X-100. The fungicide solutions were applied onto wheat seedlings using an automated booth sprayer to run-off. All sprayed plants were allowed to air dry prior to further handling. Wheat plants (variety Yuma) were grown from seed in a greenhouse in 50% mineral soil/50% soil-less Metro mix until the first leaf was fully emerged, with 7-10 seedlings per pot. These plants were inoculated with an aqueous spore suspension of Septoria tritici either prior to or after fungicide treatments. After inoculation the plants were kept in 100% relative humidity (one day in a dark dew chamber followed by two to three days in a lighted dew chamber at 20° C.) to permit spores to germinate and infect the leaf. The plants were then transferred to a greenhouse set at 20° C. for disease to develop. When disease symptoms were fully expressed on the 1st leaves of untreated plants, infection levels were assessed on a scale of 0 to 100 percent disease severity. Percent disease control was calculated using the ratio of disease severity on treated plants relative to untreated plants. Evaluation of Fungicidal Activity: Cucumber Anthracnose (Glomerella Lagenarium; Anamorph: Colletotricum Lagenarium; Bayer Code COLLLA) Cucumber seedlings (variety Bush Pickle) were propagated in soil-less Metro mix, with each pot having one plant, and used in the test when 12 to 14 days old. Test plants were inoculated with an aqueous spore suspension of Colletotricum lagenarium 24 hr after fungicide treatments. After inoculation the plants were kept in a dew room at 22° C. with 100% relative humidity for 48 hr to permit spores to germinate and infect the leaf. The plants were then transferred to a growth room set at 22° C. for disease to develop. Fungicide formulation, application and disease assessment on the sprayed leaves followed the procedures as described in the Example A.

`COc1ccnc(C(=O)N[C@H]2COC[C@H](Cc3ccccc3)[C@@H](OCCCc3ccccc3)[C@H](C)OC2=O)c1OCOC(C)=O` [Compound 34]: the pest or weed control at 100 ppm with Uncinula necator fell in the range of 0 to 80%; in experiment [1], 0 to 80%; in the experiment with Alternaria solani, 80 to 100%; in experiment [2], 80 to 100%.

Consider `COC(=O)/C=C/O[C@@H]1[C@@H](Cc2ccccc2)COC[C@H](NC(=O)c2nccc(OC)c2OCOC(C)=O)C(=O)O[C@H]1C` [Compound 36], for which the pest or weed control at 100 ppm was in the range of 0 to 80% with Uncinula necator, 0 to 80% in experiment [1], 0 to 80% with Alternaria solani and 80 to 100% in experiment [2].

Take `COc1ccnc(C(=O)N[C@H]2COC[C@H](Cc3ccccc3)[C@@H](OC(=O)c3ccccc3)[C@H](C)OC2=O)c1OCOC(C)=O` [Compound 37]: the pest or weed control at 100 ppm in the experiment with Uncinula necator is 0 to 80%; in experiment [1], 0 to 80%; with Alternaria solani, 80 to 100%; in experiment [2], 80 to 100%.

Regarding `COc1ccnc(C(=O)N[C@H]2COC[C@H](Cc3ccccc3)[C@@H](OC(=O)C3CC3)[C@H](C)OC2=O)c1OCOC(C)=O` [Compound 38], the pest or weed control at 100 ppm was 0 to 80% in the experiment on Uncinula necator, 0 to 80% in experiment [1], 80 to 100% in the experiment with Alternaria solani and 80 to 100% in experiment [2].

In the case of `COc1ccnc(C(=O)N[C@H]2COC[C@H](Cc3ccccc3)[C@@H](OC)[C@H](C)OC2=O)c1OCOC(C)=O` [Compound 39], the pest or weed control at 100 ppm in the experiment on Uncinula necator is 0 to 80%; in experiment [1] it was 0 to 80%; in the experiment with Alternaria solani it was 0 to 80%; in experiment [2], 80 to 100%.

Regarding `COc1ccnc(C(=O)N[C@H]2COC[C@H](Cc3ccccc3)[C@@H](Oc3ccccc3)[C@H](C)OC2=O)c1OCOC(C)=O` [Compound 40], the pest or weed control at 100 ppm in the experiment on Uncinula necator was 0 to 80%; in experiment [1] it was 0 to 80%; with Alternaria solani, 80 to 100%; in experiment [2] it was 80 to 100%.
